Measured values from patent publication US10301277B2, “Substituted ureas and methods of treating mental illness using the same” (ZHEJIANG JINGXIN PHARMACEUTICAL CO., LTD., priority 2016, dated 2019).
Like-named read-outs stand apart in the source and are kept apart here.

Experiments:
[1] = system: MK-801-induced schizophrenia model; test: MK-801-induced schizophrenia model, open field running behavior; type: in vivo, Sprague-Dawley rats; settings: for inhibition of high spontaneous activity of MK-801-induced rats: dose of 0.3 mg/kg, compared with MK-801 model control; for Total Distance within 61-150 minutes / Improvement Rate: single oral administration 0.3 mg/kg; for Total Distance within 61-150 minutes: MK-801 0.3 mg/kg i.p., x ± SD; for Improvement Rate: versus MK-801 model control
Procedure: (I) Modeling of MK-801-Induced Schizophrenia in Mice
Each rat was placed in a soundproof box for 30 minutes on the day before the test to adapt. On the next day, each rat was administrated with the respective test compounds, and after 30 minutes, administrated intraperitoneally with a 0.3 mg/kg MK-801 solution at 5.0 mL/kg body weight of the rat to build a model of MK-801-induced schizophrenia in mice.
(II) Observation of Open Field Running Behavior
Mice were administered with MK-801 and then immediately placed in the soundproof box. The total distances of motion of mice within 2.5 hours were observed and recorded. Improvement rate=(total distance of model control−total distance of administration)/(total distance of model control)×100%. (III) Statistical Method
All the data was expressed with x±SD and processed by SPSS17.0 software statistical package. T-test and one-way analysis of variance were performed to compare the mean of two samples, with P<0.05 as significant difference.

[2] = Acute toxicity assay, single oral administration; settings: ICR, mouse, in vivo
Procedure: Acute Toxicity Assay of the Cyclohexane Derivatives of the Present Invention
ICR mice orally administered with the compounds of the present invention were evaluated and their toxicity symptoms after oral administration were observed, as well as the mortality, which was calculated by Bliss method, thus the acute toxicities were compared.
• i. Preparation of solvent: Tween-80 of an appropriate amount was diluted with deionized water to a concentration of […] (g/v) Tween-80. • ii. […]. Administration: the test compound and solvent medium control groups (0.5% Tween-80) were administered orally.
Observations include but are not limited to: general condition, behavior, gait, eyes, mouth, nose, gastrointestinal tract, skin and hair and urogenital tract.

[3] = molecular target: T1, Dopamine D2 receptor (Homo sapiens, UniProt P14416); test: Dopamine D2 receptor binding assay; settings: [3H] Spiperone, HEK293 cells expressing D2 receptor
T1 construct: expressed in transfected cells
Procedure: (§1) This test was carried out according to the dopamine D2/D3 receptor binding assay and the 5-HT1A receptor binding assay described in Jiangsu Hengyi Pharmaceutical Co., Ltd.'s Patent CN 103130737 A. IC50 values were calculated from concentration-dependent reactions using a non-linear analysis program. Ki values were calculated from IC50 values by using Cheng-Prussoff equation, i.e. Ki=IC50/(1+[L]/KD), wherein Ki is the affinity of the drug to the receptor; […]; and KD is the affinity of radioligand to the receptor.
(I) Dopamine D2 Receptor Binding Assay
• a. Transfection of D2 Receptor Cells: by using calcium phosphate method, HEK293 cells were transfected with a plasmid vector containing the D2 receptor protein gene. The transfected cells were cultured in a culture solution containing G418, followed by a selection of monoclonal cell and radioligand binding assay, finally obtaining a stable cell line with stable expression of D2 receptor protein. • b. Materials for receptor binding assay: isotope ligand [^3H] Spiperone (113.0 Ci/mmol); available from Sigma-Aldrich Company; (+) spiperone, available from RBI company; GF/B glass fiber filter paper, available from Whatman Company; Tris imported and packaged; PPO, POPOP, available from Shanghai Reagent Chemical Company; lipid-soluble scintillation solution; and Beckman LS-6500 Multi-function Liquid Scintillation Counter. ii. Test Method • a. Treatment of cells: HEK-293 cells were infected with various recombinant viruses of the above genes, respectively, and the receptor proteins were highly expressed on the membranes after 48-72 hours. The cells were centrifuged at 1000 rpm for 5 minutes. The culture solution was discarded, and the cells were collected and stored in a refrigerator at −20° C. for standby. The cells were resuspended with Tris-HCl buffer (pH=7.5) when tested. • b. Competitive binding assay for receptor
The compound to be tested and the radio ligand, both 20 μL, and 160 μL of receptor proteins were added to the reaction test tubes to achieve a final concentration of 10 μmol/L for each of the compound to be tested and positive control, incubated in a water bath of 30° C. for 50 minutes and immediately transferred to an ice bath to terminate the reaction; placed on a Millipore cell sample collector, filtered by suction rapidly through a […] glass fiber filter, and eluted with 3 mL of eluent (50 mM Tris-HCl, pH7.5) for three times and dried with microwave for 5-6 minutes. The filter paper was transferred into a 0.5 mL centrifuge tube to which 500 μL of lipid-soluble scintillation solution was added, and settled away from light for more than 30 minutes. The radioactive intensity was determined by counting. The concentration of the compound was 10 μmol/L, and inhibition rate (%) of each compound to the binding of isotope ligands was calculated according to the following equation: Inhibition rate (I%)=(total binding tube cpm−compound cpm)/(total binding tube cpm—non-specific binding tube cpm)×100%. (II) Dopamine D3 Receptor Binding Assay

[4] = molecular target: T2, 5-HT1A receptor (Homo sapiens, UniProt P08908); test: 5-HT1A receptor binding assay; settings: [3H] 8-OH-DPAT, HEK-293 cells expressing 5-HT1A receptor
T2 construct: expressed in transfected cells
T2 sequence (P08908 1-422): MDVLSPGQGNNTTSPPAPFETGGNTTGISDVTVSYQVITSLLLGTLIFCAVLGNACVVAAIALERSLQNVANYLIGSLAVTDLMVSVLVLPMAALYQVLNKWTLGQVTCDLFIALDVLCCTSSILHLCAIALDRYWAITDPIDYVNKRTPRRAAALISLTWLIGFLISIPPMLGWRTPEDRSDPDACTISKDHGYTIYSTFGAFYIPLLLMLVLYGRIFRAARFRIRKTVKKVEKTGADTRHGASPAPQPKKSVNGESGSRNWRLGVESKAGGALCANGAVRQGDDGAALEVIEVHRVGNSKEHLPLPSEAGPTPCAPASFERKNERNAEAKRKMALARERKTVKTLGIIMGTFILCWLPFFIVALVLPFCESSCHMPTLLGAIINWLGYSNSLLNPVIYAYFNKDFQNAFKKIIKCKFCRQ
Procedure: as §1
(III) 5-HT1A Receptor Binding Assay
5-HT1A receptor isotope ligand [^3H] 8-OH-DPAT (available from PE Company); (+)5-hydroxytrptamine (available from Sigma Company); GF/B glass fiber filter paper (available from Whatman Company); lipid-soluble scintillation solution: PPO, POPOP (available from Shanghai Chemical Reagent Company); toluene (from Sinopharm Chemical Reagent Co., Ltd.); Tris imported and packaged.
Treatment of cells: HEK-293 cells which stably express the 5-HT1A receptor by gene recombination were cultured in DMEM+10% serum solution for 3-5 days and then collected with PBS. The cells were centrifuged at 3000 rpm and […] for 10 minutes. Afterwards, the supernate was discarded, and the cells were collected and stored in a refrigerator at −80° C. The cells were resuspended with D1 Binding Buffer (pH 7.4) when tested.
Inhibition rate of each compound of 10 umol/L to the binding of [^3H]8-OH-DPAT and the 5-HT1A receptor was determined by a general selection.

[5] = molecular target: Dopamine D3 receptor (Homo sapiens, UniProt P35462); test: Dopamine D3 receptor binding assay
Procedure: as §1
The concentration of the compound was 10 μmol/L, and the assay was performed according to the method described in Journal of Pharmacology and Experimental Therapeutics 2010, 333 (1): 328.

[6] = single oral administration, Bliss method, read-out: LD50

T1 sequence (P14416 whole entry, species assumed): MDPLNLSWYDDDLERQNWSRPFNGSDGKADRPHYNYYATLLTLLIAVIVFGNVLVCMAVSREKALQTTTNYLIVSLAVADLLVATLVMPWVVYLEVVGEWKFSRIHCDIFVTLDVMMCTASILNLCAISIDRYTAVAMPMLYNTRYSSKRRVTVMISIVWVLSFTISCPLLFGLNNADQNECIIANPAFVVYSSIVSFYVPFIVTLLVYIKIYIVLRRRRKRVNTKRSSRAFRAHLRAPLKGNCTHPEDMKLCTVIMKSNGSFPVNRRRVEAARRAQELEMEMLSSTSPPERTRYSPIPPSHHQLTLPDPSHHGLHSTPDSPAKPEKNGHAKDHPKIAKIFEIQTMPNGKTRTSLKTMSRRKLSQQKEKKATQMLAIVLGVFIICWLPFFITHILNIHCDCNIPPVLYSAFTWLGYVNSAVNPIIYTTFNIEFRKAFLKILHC
Sequence of Dopamine D3 receptor (P35462 whole entry, species assumed): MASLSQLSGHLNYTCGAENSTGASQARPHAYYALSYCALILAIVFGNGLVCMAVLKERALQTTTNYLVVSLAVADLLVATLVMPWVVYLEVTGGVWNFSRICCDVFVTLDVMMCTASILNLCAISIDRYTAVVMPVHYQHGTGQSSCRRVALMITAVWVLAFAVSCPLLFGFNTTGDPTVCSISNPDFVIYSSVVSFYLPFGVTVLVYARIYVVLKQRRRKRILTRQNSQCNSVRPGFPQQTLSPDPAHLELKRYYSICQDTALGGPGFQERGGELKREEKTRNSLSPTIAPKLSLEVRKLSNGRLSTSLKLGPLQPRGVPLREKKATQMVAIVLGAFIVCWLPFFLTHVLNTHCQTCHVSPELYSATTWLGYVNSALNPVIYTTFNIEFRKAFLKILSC

SMILES: Cc1ccc2c(N3CCN(CC[C@H]4CC[C@H](NC(=O)N(C)C)CC4)CC3)noc2c1 [Compound 14, N′-[trans-4-[2-[4-(6-methyl-benzo[d]isoxazol)-4-piperazinyl]ethyl]cyclohexyl]-N,N-dimethylurea]
- inhibition of high spontaneous activity of MK-801-induced rats [1]: significantly inhibited
- Total Distance within 61-150 minutes [1]: 150.28 ± 11.70 m
- Improvement Rate [1]: 51.49%

SMILES: CN(C)C(=O)N[C@H]1CC[C@H](CCN2CCN(c3cccc4cscc34)CC2)CC1 [drawing 36]
- LD50 at 6 days [2, 6]: 1050 mg/kg

SMILES: CN(C)C(=O)N[C@H]1CC[C@H](CCN2CCN(c3nsc4ccccc34)CC2)CC1 [Compound 4, N′-[trans-4-[2-[4-(benzo[d]isothiazolyl)-3-piperazinyl]ethyl]cyclohexyl]-N,N-dimethylurea]
- Total Distance within 61-150 minutes [1]: 232.18 ± 20.3 m
- Improvement Rate [1]: 25.05%

SMILES: CN(C)C(=O)N[C@H]1CC[C@H](CCN2CCN(c3cccc4cscc34)CC2)CC1 [drawing 30]
- Ki [3]: 978 nM
- Ki [4]: 3.72 nM
- Ki [5]: 0.07 nM

SMILES: CN(C)C(=O)N[C@H]1CC[C@H](CCN2CCN(c3ccc4c(Cl)noc4c3)CC2)CC1 [drawing 33]
- Ki [3]: 251 nM
- Ki [4]: 22.8 nM
- Ki [5]: 0.57 nM

SMILES: CN(C)C(=O)N[C@H]1CC[C@H](CCN2CCN(c3cccc4cscc34)CC2)CC1 [Compound 3, N′-[trans-4-[2-[4-(benzo[c]thiophene)-7-piperazinyl]ethyl]cyclohexyl]-N,N-dimethylurea]
- inhibition of high spontaneous activity of MK-801-induced rats [1]: significantly inhibit
- Total Distance within 61-150 minutes [1]: 63.79 ± 10.8 m
- Improvement Rate [1]: 79.41%

SMILES: CN(C)C(=O)N[C@H]1CC[C@H](CCN2CCN(c3cccc4ccsc34)CC2)CC1 [Compound 2, N′-[trans-4-[2-[7-(benzo[b]thiophene)-7-piperazinyl]ethyl]cyclohexyl]-N,N-dimethylurea]
- inhibition of high spontaneous activity of MK-801-induced rats [1]: significantly inhibit
- Total Distance within 61-150 minutes [1]: 46.95 ± 10.3 m
- Improvement Rate [1]: 84.84%

SMILES: CN(C)C(=O)N[C@H]1CC[C@H](CCN2CCN(c3cccc4ccsc34)CC2)CC1 [drawing 35]
- LD50 at 6 days [2, 6]: 1100 mg/kg

SMILES: CN(C)C(=O)N[C@H]1CC[C@H](CCN2CCC(c3noc4cc(F)ccc34)CC2)CC1 [Compound 7, N′-[trans-4-[2-[4-(6-fluoro-benzo[d]isoxazol)-3-piperidyl]ethyl]cyclohexyl]-N,N-dimethylurea]
- inhibition of high spontaneous activity of MK-801-induced rats [1]: significantly inhibited
- Total Distance within 61-150 minutes [1]: 160.82 ± 12.91 m
- Improvement Rate [1]: 48.09%

SMILES: CN(C)C(=O)N[C@H]1CC[C@H](CCN2CCN(c3noc4cc(F)ccc34)CC2)CC1 [drawing 32]
- Ki [3]: 1.3 nM
- Ki [4]: 4.12 nM
- Ki [5]: 0.29 nM

SMILES: CN(C)C(=O)N[C@H]1CC[C@H](CCN2CCN(c3cccc4sccc34)CC2)CC1 [drawing 31]
- Ki [3]: > 1000 nM
- Ki [4]: 3.96 nM
- Ki [5]: 0.06 nM

SMILES: CN(C)C(=O)N[C@H]1CC[C@H](CCN2CCN(c3ccc4c(Cl)noc4c3)CC2)CC1 [Compound 6, N′-[trans-4-[2-[4-(3-chloro-benzo[d]isoxazol)-6-piperazinyl]ethyl]cyclohexyl]-N,N-dimethylurea]
- inhibition of high spontaneous activity of MK-801-induced rats [1]: significantly inhibited
- Total Distance within 61-150 minutes [1]: 171.78 ± 13.0 m
- Improvement Rate [1]: 12.27%

SMILES: CN(C)C(=O)N[C@H]1CC[C@H](CCN2CCC(c3noc4cc(F)ccc34)CC2)CC1 [drawing 34]
- Ki [3]: > 1000 nM
- Ki [4]: 3.65 nM
- Ki [5]: 0.15 nM

SMILES: CN(C)C(=O)N[C@H]1CC[C@H](CCN2CCN(c3cccc(Cl)c3Cl)CC2)CC1 [Cariprazine, reference compound]
- LD50 at 6 days ([2]; po): 75.3 mg/kg
- total distances of the rats within 150 minutes compared with MK-801 model control ([1]; 0.3 mg/kg): decreased
- inhibition of high spontaneous activity of MK-801-induced rats [1]: significantly inhibited
- Total Distance within 61-150 minutes [1]: 168.25 ± 26.9 m
- Improvement Rate [1]: 45.69%

SMILES: CN(C)C(=O)N[C@H]1CC[C@H](CCN2CCN(c3cccc4sccc34)CC2)CC1 [Compound 1, N′-[trans-4-[2-[4-(benzo[b]thiophene)-7-piperazinyl]ethyl]cyclohexyl]-N,N-dimethylurea]
- inhibition of high spontaneous activity of MK-801-induced rats [1]: significantly inhibit
- Total Distance within 61-150 minutes [1]: 73.09 ± 11.7 m
- Improvement Rate [1]: 76.41%

SMILES: CN(C)C(=O)N[C@H]1CC[C@H](CCN2CCN(c3noc4cc(F)ccc34)CC2)CC1 [Compound 5, N′-[trans-4-[2-[4-(6-fluoro-benzo[d]isoxazol)-3-piperazinyl]ethyl]cyclohexyl]-N,N-dimethylurea]
- inhibition of high spontaneous activity of MK-801-induced rats [1]: significantly inhibit
- Total Distance within 61-150 minutes [1]: 5.43 ± 1.7 m
- Improvement Rate [1]: 98.25%

SMILES: CN(C)C(=O)N[C@H]1CC[C@H](CCN2CCN(c3cccc4sccc34)CC2)CC1 [drawing 37]
- LD50 at 6 days [2, 6]: 1080 mg/kg

SMILES: CN(C)C(=O)N[C@H]1CC[C@H](CCN2CCN(c3cccc4ccsc34)CC2)CC1 [drawing 29]
- Ki [3]: > 1000 nM
- Ki [4]: 3.85 nM
- Ki [5]: 0.06 nM
